Square brackets hold non-standard residues; d marks the D form. Ends that are not written are not given here. Gla = N[C@@H](CC(C(=O)O)C(=O)O)C(=O)O
How the values were obtained:
[1] = system: mouse yolk sac endothelial C166-GFP cells; experiment: C166-GFP cell proliferation on peptide-treated HA slabs (CYQUANT); assay type: cell-based; conditions: 2-day culture on HA slab incubated in peptide solution
Experimental: Cells were again seeded at a density of 2×10^4 cells/cm^2 (4×10^4 cells per well) in 24-well plate. Prior to seeding, HA slabs (1 cm×1 cm) were incubated in peptide solution (PBS) for four hours at 37° C. and copiously rinsed with deionized water, and then placed in a well of the 24-well plate. After 1-day culture, cells were treated with 2 μM calcein AM solution, and imaged using Olympus IX-51 microscope.
Additionally, a cell number count of the C166-GFP cells as cultured in the presence of VEGF-OCN or VEGF mimic was determined For the cell count, cells were seeded at a density of 5×10^3 cells/cm^2 (1×10^4 cells per well) in a 24-well plate. After 2-day culture, cells were detached from the HA slab and cell number was assessed using CYQUANT assay.

[2] = Binding of VEGF peptides to HA particles / HA slab
Experimental: The binding behavior of the peptides (both modular peptide, VEGF-OCN (SEQ ID NO:18), and VEGF-mimic) were analyzed and compared as described above. The amount of bound VEGF-OCN on the HA particle increased with peptide concentration and reached saturation at 15 μM (FIG. 8A).

[3] = Binding of rhodamine-labeled peptide to cortical bone; parameters: species or system sheep
Experimental: The native bone used were harvested from sheep tibia and bovine sternum. Cortical (compact) bone slices were collected from sheep tibia with periosteum removed, and trabecular (cancellous, spongy) bone cores were drilled out from bovine sternum under sterile conditions.
The peptide binding to native bones was tested in three different experiments. In the first experiment, the cortical bone slices were incubated in modular peptide solution (0.5 mL, PBS) with concentrations of 50, 100, 200 and 300 μg/mL. The incubation was continued in a static condition for a period of 0.5, 1, 2 and 3 hours. For another experiment, the trabecular bone cores were placed in the chamber of bone bioreactor where the peptide solution prepared in DMEM (100 μg/mL, 6.5 mL) was continuously circulated through the chamber for a time period of 2, 4, 6, 8 and 10 hours. In the last experiment, mBMP was bound in a spatially controlled manner by dip-coating, spotting or writing with mBMP solution on native bone tissues. Following each experiment, the bones were rinsed with PBS to remove unbound peptide and their fluorescence images were captured using a Typhoon fluorescence scanner (GE healthcare) or a Nikon Eclipse Ti inverted microscope. To quantify the fluorescence intensity, the images were converted into 8-bit using ImageJ to present the intensity level of each pixel in the range of 0 to 255. The mean pixel intensity of a selected region of interest was considered to be proportional to the amount of peptide bound.
To examine mBMP binding to cortical bone without periosteum (ca. 4 mm×7 mm×1.5 mm) from the shaft of sheep tibia, the bone tissue was incubated in mBMP solution prepared in phosphate buffered saline (PBS). The binding of mBMP was concentration-dependent for each incubation time tested (FIGS. 12 and 13A). The quantity of mBMP binding was proportional to the solution concentration, which was clearly observed through all concentrations at 0.5 hour. However, this dependence was not apparent at higher concentrations at later time points. […] The insignificant dependence on the incubation time is likely attributed to the rapid binding of mBMP to native bone tissue.

[4] = Release kinetics of modular peptides from HA-coated film; conditions: after 5 days, PBS, 37° C.
Experimental: To quantify release kinetics of 5(6) FAM-conjugated modular peptides from HA-coated film, the films were first incubated in solutions containing 250 μM (˜500 μg) of each peptide (eBGu1, eBGu3, eBGa1, or eBGa3) to allow for binding (as described above), then incubated in 500 μl of PBS buffer at 37° C. with constant agitation for 5 days (eBGu1 and eBGu3 peptides) or 10 weeks (eBGa1 and eBGa3 peptides), respectively. Whole buffer solutions were changed at indicated time points and the amount of peptide released from the HA-coated film was determined via fluorescence analysis and comparison with standards containing known amounts of 5(6)-FAM. The fluorescent images of fluorescently-labeled peptides bound to HA-coated films were obtained using an Olympus IX51 fluorescence microscope (Olympus, Center Valley, Pa.).

[5] = Binding of 5(6)-FAM-conjugated modular peptides to HA-coated PLG films; conditions: 500 μg (1 mg/ml) 5(6)-FAM-conjugated peptide in PBS, 4 hr, 37° C., constant agitation
Experimental: Poly (lactide-coglycolide) (PLG) films were prepared via a solvent casting process in which PLG (85:15) pellets were dissolved in chloroform (50 mg/ml), added to a PTFE dish, and dried for 2 days. The films were further dried at 50-55° C. for 4 hr to remove residual solvent and samples were cooled to room temperature. Square films (1 cm^2) were manually cut out of the resulting PLG film sheets. A “bone-like” HA-based material layer was grown on the PLG films using a direct deposition technique by biomimetic mineralization in modified simulated body fluid (mSBF).
To measure the binding efficiency of modular peptides to the HA-coated PLG films and to gain preliminary insight into the properties that influence modular peptide immobilization, 1 cm^2 HA-coated PLG films was first exposed to PBS solutions containing 500 μg (1 mg/ml) of 5(6) FAM-conjugated eBMP-2, eBGu1, eBGu3, eBGa1, or eBGa3 modular peptide solution (See Table 1 for definitions of these abbreviations). The films were incubated in peptide solutions with constant agitation for 4 hr at 37° C., and the amount of free peptide remaining was determined by measuring the fluorescence emission of the solution (excitation: 494 nm; emission 519 nm) using a Synergy HT Multi-Detection Microplate Reader (BioTek, Winooski, Vt.), and comparing this emission to standard samples with known concentrations of 5(6)-FAM. To further characterize surface immobilization of the peptide with the highest binding efficiency—the eBGa3 peptide-1 cm^2 HA-coated films were incubated in various concentrations (50-750 nM) of 5(6)-FAM-conjugated eBGa3 peptide for 4 hr with constant agitation at 37° C. The amount of peptide bound to HA-coated film was again determined by fluorescence analysis, as described above.

| Substance | binding efficiency on the HA-coated PLG films [5] | peptide released from HA-coated films [4] | other results |
| --- | --- | --- | --- |
| KLTWQELYQLKYKGI-GGGAAAA-γEPRRγEVAγEL (KLTWQELYQLKYKGIGGGAAAA[Gla]PRR[Gla]VA[Gla]L) [VEGF-OCN] | – | – | effect of peptide-treated HA slab on cell number [1]: promoted cell proliferation; peptide concentration at which bound amount on HA particle reached saturation ([2]; HA particles): 15 µM |
| KLTWQELYQLKYKGI [VEGF-mimic, VEGF helical region mimic first synthesized by Pedon, et al, reference compound] | – | – | amount of peptide bound to HA slab ([2]; HA slab, qualitative comparison): much less than that of VEGF-OCN |
| KIPKASSVPTELSAISTLYLAAAAγEPRRAVAAL (KIPKASSVPTELSAISTLYLAAAA[Gla]PRRAVAAL-NH2; N-terminus assumed; SMILES CC[C@H](C)[C@H](NC(=O)[C@H](C)NC(=O)[C@H](CO)NC(=O)[C@H](CC(C)C)NC(=O)[C@H](CCC(=O)O)NC(=O)[C@@H](NC(=O)[C@@H]1CCCN1C(=O)[C@@H](NC(=O)[C@H](CO)NC(=O)[C@H](CO)NC(=O)[C@H](C)NC(=O)[C@H](CCCCN)NC(=O)[C@@H]1CCCN1C(=O)[C@@H](NC(=O)[C@@H](N)CCCCN)[C@@H](C)CC)C(C)C)[C@@H](C)O)C(=O)N[C@@H](CO)C(=O)N[C@H](C(=O)N[C@@H](CC(C)C)C(=O)N[C@@H](Cc1ccc(O)cc1)C(=O)N[C@@H](CC(C)C)C(=O)N[C@@H](C)C(=O)N[C@@H](C)C(=O)N[C@@H](C)C(=O)N[C@@H](C)C(=O)N[C@@H](CC(C(=O)O)C(=O)O)C(=O)N1CCC[C@H]1C(=O)N[C@@H](CCCNC(=N)N)C(=O)N[C@@H](CCCNC(=N)N)C(=O)N[C@@H](C)C(=O)N[C@H](C(=O)N[C@@H](C)C(=O)N[C@@H](C)C(=O)N[C@@H](CC(C)C)C(N)=O)C(C)C)[C@@H](C)O) [eBGa1, modular BMP-2/OCN peptide with one Gla residue] | 29.9±2% | – | – |

Now from value to substance, other results behind:

| binding efficiency on the HA-coated PLG films [5] | Substance | peptide released from HA-coated films [4] | other results |
| --- | --- | --- | --- |
| 7.6±7.8% | KIPKASSVPTELSAISTLYLAAAAEPRREVAEL [eBGu3, modular BMP-2/OCN peptide with Glu in place of Gla at three positions] | 93.33±17.24% | dependence of binding to cortical bone on concentration and incubation time ([3]; 50-300 μg/mL in PBS, 0.5-3 hours): independent of incubation time and peptide concentration; amount of peptide bound to cortical bone ([3]; each experimental condition tested): significantly less than that of mBMP |
| 10.3±4.7% | KIPKASSVPTELSAIATLYLAAAAEPRRAVAAL [eBGu1, modular BMP-2/OCN peptide with one Glu residue] | 98.89±18.84% | – |

Source: patent US20140235542A1, “MODULAR, BIOACTIVE PEPTIDES FOR BINDING NATIVE BONE AND IMPROVING BONE GRAFT OSTEOINDUCTIVITY” (WISCONSIN ALUMNI RESEARCH FOUNDATION, priority 2013, published 2014)
